Experimental data: US20250084039A1, “4-SUBSTITUTED AMINOISOQUINOLINE DERIVATIVES” (Purdue Research Foundation, priority 2016, published 2025)
Where “and” joins values, the source holds several entries; their conditions need not be identical. Equal entries are not always repeated. Where two headings read alike, the source gives them in different places.

What was measured:
MV-4-11 = experiment: Proliferation inhibition at single concentration (CellTiter-Blue); assay type: cell-based; settings: 1 μM compound
HCT116 = experiment: as above; assay type: cell-based; settings: 1 μM compound
MV4-11 = experiment: IC50 determination (proliferation assay, CellTiter-Blue); assay type: cell-based
Procedure, shortened: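 MOLM14 and MV4-11 cells seeded about 18 h before compound addition (DMSO-diluted), then 72 h exposure.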

CTK/MATK = CTK/MATK (Homo sapiens (Human), UniProt P42679); experiment: Reaction Biology HotSpot kinase assay; assay type: biochemical; settings: 500 nM compound; for inhibition at 0.5 µM: read-out: Percentage kinase inhibition CTK/MATK
Procedure, shortened: (§1)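 Phosphotransfer from [γ-33P]ATP was quantified after filter binding on P81 paper. Conditions: 20 mM HEPES pH 7.5, 10 mM MgCl2, 0.1 mM Na3VO4, 2 mM DTT, 0.02 mg/mL BSA; ATP 100 μM final; 2 h at room temperature. Compound was dosed at 500 nM.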

MKK7 = MKK7 (Homo sapiens (Human), UniProt O14733); experiment: Reaction Biology HotSpot kinase assay; assay type: biochemical; settings: 500 nM compound; for inhibition at 0.5 µM: read-out: Percentage kinase inhibition MKK7
Procedure, shortened: as §1

ERK1 = ERK1 (Homo sapiens (Human), UniProt P27361); experiment: Reaction Biology HotSpot kinase assay; assay type: biochemical; settings: 500 nM compound; for inhibition at 0.5 µM: read-out: Percentage kinase inhibition ERK1
Procedure, shortened: as §1

BLK = BLK (Homo sapiens (Human), UniProt P51451); experiment: Reaction Biology HotSpot kinase assay; assay type: biochemical; settings: 500 nM compound; for inhibition at 0.5 µM: read-out: Percentage kinase inhibition BLK
Procedure, shortened: as §1

FMS = FMS (Homo sapiens (Human), UniProt P07333); experiment: Reaction Biology HotSpot kinase assay; assay type: biochemical; settings: 500 nM compound; for inhibition at 0.5 µM: read-out: Percentage kinase inhibition FMS
Procedure, shortened: as §1

MEK1 = MEK1 (Homo sapiens (Human), UniProt Q02750); experiment: Reaction Biology HotSpot kinase assay; assay type: biochemical; settings: 500 nM compound; for inhibition at 0.5 µM: read-out: Percentage kinase inhibition MEK1
Procedure, shortened: as §1

HeLa = experiment: Proliferation inhibition at single concentration (CellTiter-Blue); assay type: cell-based; settings: 1 μM compound
MCF-7 = experiment: as above; assay type: cell-based; settings: 1 μM compound
FGFR4 = FGFR4 (Homo sapiens (Human), UniProt P22455); experiment: Reaction Biology HotSpot kinase assay; assay type: biochemical; settings: 500 nM compound; read-out: Percentage kinase inhibition FGFR4
Procedure, shortened: as §1

RIPK4 = RIPK4 (Homo sapiens (Human), UniProt P57078); experiment: Reaction Biology HotSpot kinase assay; assay type: biochemical; settings: 500 nM compound; read-out: Percentage kinase inhibition RIPK4
Procedure, shortened: as §1

FLT3 (ITD) = FLT3 (ITD) (Homo sapiens, UniProt P36888, ITD); experiment: DiscoverX Kd Elect binding; settings: Kd FLT3 (ITD)
Description: (§2) Although the current drugs on the market or in clinical trials are relatively successful in killing the AML leukemia cells, they currently are unable to deal with secondary mutations that occur after TKI treatment, such as FLT3 ([…]).

FLT3 (D835V) = FLT3 (D835V) (Homo sapiens (Human), UniProt P36888, D835V); experiment: DiscoverX Kd Elect binding
Description: as §2

FLT3 (ITD, F691L) = FLT3 (ITD, F691L) (Homo sapiens, UniProt P36888, F691L/ITD); experiment: DiscoverX Kd Elect binding
[1] = molecular target: ABL1 (T315I) non-phosphorylated (Homo sapiens (Human), UniProt P00519, T315I); experiment: DiscoverX Kd Elect binding
ABL1 phosphorylated = ABL1 phosphorylated (Homo sapiens (Human), UniProt P00519); experiment: DiscoverX Kd Elect binding
DNA-PK = DNA-PK (Homo sapiens (Human), UniProt P78527); experiment: Reaction Biology HotSpot kinase assay; assay type: biochemical; settings: 500 nM compound; read-out: Percentage kinase inhibition DNA-PK
Procedure, shortened: as §1

FLT3 = FLT3 (Homo sapiens (Human), UniProt P36888); experiment: DiscoverX Kd Elect binding
Description: as §2
HCK is expressed more in human primary leukemic stem cells than in human normal hematopoietic stem cells. […] Other protein kinases such as SYK, BRAF, p38 (p38MAPK), PDGFRα/β, FGFR1, RET, FLT4, Tie2 have also been linked to leukemia. […] (Table 9). The inhibition of the Src-kinase family could be important clinically because these kinases are downstream of FLT3. In the event of FLT3 mutation, the inhibition of the Src-family kinases could still lead to proliferation inhibition.

SRC = SRC (Homo sapiens (Human), UniProt P12931); experiment: Inhibition of kinase enzymatic activity (IC50); assay type: biochemical
Sequence of SRC (P12931 whole entry, looked up): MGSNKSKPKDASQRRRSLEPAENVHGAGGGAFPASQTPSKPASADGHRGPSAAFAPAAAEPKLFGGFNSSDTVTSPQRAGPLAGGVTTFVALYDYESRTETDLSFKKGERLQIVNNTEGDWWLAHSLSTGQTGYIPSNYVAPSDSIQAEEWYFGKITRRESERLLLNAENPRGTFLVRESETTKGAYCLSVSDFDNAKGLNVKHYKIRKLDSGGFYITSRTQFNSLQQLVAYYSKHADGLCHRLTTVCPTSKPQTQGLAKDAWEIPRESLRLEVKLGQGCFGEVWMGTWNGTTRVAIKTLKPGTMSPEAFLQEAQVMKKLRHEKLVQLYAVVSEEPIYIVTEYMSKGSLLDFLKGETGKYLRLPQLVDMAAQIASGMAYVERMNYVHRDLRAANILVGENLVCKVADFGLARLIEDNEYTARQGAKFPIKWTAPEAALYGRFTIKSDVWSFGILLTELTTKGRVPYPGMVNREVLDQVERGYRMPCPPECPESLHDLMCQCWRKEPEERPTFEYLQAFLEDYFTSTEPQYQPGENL

Sequence of CTK/MATK (P42679 whole entry): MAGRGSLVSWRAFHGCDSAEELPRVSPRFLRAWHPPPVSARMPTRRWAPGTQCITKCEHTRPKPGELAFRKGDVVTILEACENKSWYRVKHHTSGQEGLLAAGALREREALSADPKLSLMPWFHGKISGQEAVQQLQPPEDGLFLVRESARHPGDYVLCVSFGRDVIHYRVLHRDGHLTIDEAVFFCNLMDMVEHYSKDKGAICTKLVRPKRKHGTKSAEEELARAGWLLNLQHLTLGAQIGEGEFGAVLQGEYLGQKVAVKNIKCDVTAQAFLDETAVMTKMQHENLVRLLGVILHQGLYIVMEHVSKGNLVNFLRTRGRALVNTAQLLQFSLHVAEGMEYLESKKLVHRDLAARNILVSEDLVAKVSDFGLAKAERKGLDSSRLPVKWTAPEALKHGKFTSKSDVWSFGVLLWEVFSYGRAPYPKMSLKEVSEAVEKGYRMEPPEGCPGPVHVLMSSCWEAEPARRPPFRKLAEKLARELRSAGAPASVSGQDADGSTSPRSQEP
Sequence of FMS (P07333 20-972): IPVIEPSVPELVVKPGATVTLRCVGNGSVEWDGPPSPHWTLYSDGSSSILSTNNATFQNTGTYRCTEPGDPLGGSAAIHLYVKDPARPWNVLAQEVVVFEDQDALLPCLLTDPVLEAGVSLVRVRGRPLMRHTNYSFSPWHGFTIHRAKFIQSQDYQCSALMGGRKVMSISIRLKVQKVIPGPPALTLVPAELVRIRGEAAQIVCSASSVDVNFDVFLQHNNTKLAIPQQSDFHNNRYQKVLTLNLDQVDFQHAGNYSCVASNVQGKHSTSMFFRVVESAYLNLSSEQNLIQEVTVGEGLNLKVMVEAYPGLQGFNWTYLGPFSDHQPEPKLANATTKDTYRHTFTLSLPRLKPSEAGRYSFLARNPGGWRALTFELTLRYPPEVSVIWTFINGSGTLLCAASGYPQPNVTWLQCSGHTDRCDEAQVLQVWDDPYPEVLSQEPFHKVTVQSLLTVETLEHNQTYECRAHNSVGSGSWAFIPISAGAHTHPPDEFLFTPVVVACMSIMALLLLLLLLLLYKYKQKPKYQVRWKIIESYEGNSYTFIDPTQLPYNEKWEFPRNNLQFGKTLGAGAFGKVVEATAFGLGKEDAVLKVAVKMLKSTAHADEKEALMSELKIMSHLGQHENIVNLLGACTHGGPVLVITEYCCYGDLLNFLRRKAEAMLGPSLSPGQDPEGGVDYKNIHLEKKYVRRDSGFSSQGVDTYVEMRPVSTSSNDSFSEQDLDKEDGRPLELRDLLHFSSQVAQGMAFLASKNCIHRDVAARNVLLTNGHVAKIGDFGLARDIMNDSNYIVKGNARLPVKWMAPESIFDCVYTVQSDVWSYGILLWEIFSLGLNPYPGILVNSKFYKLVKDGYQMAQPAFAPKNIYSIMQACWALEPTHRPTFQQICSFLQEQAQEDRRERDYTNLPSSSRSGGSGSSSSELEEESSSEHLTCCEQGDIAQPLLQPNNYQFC
Sequence of MEK1 (Q02750 whole entry): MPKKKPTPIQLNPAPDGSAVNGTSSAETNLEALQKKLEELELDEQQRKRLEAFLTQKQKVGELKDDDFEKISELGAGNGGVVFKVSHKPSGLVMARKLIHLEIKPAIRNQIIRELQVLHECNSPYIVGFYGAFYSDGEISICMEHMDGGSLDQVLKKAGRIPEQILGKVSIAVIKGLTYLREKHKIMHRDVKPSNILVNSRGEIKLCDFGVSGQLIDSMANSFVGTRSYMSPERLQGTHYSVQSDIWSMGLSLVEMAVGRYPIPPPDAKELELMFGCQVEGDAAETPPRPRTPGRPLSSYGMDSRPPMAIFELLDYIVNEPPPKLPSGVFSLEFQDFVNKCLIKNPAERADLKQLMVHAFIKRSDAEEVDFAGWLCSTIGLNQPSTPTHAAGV
Sequence of ERK1 (P27361 whole entry): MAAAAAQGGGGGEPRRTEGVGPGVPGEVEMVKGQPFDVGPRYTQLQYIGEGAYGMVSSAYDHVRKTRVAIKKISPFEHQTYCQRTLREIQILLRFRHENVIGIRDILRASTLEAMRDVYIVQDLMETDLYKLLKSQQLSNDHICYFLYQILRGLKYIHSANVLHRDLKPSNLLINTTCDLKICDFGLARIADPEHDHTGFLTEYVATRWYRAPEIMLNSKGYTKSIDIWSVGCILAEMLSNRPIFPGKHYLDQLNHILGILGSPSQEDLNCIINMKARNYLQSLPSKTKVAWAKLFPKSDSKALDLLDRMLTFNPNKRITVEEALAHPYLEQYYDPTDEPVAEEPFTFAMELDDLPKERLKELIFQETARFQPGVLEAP
Sequence of MKK7 (O14733 whole entry): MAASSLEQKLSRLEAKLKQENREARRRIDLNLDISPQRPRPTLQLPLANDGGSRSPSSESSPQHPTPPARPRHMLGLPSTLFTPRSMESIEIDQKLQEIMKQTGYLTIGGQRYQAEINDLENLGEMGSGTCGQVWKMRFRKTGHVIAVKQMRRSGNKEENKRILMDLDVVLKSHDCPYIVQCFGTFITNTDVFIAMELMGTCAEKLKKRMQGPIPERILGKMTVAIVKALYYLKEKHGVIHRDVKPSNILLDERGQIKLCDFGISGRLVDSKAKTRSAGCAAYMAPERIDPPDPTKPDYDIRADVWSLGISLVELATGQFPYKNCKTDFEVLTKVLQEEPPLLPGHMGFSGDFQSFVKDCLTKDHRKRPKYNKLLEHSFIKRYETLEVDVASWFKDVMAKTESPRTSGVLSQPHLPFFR
Sequence of BLK (P51451 whole entry): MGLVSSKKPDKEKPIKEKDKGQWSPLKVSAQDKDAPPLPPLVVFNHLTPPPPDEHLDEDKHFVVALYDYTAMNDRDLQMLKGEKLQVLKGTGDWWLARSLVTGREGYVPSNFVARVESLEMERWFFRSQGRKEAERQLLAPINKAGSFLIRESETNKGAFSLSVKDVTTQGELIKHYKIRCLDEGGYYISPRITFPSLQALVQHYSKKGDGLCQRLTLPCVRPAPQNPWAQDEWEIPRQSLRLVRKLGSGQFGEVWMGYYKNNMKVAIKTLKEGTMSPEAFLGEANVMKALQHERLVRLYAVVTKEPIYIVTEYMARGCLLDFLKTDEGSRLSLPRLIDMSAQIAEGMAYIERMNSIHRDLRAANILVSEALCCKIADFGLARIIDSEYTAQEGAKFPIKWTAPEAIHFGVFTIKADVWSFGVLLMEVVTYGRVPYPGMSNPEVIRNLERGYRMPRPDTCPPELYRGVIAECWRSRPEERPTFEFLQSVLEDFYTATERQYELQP
Sequence of RIPK4 (P57078 whole entry): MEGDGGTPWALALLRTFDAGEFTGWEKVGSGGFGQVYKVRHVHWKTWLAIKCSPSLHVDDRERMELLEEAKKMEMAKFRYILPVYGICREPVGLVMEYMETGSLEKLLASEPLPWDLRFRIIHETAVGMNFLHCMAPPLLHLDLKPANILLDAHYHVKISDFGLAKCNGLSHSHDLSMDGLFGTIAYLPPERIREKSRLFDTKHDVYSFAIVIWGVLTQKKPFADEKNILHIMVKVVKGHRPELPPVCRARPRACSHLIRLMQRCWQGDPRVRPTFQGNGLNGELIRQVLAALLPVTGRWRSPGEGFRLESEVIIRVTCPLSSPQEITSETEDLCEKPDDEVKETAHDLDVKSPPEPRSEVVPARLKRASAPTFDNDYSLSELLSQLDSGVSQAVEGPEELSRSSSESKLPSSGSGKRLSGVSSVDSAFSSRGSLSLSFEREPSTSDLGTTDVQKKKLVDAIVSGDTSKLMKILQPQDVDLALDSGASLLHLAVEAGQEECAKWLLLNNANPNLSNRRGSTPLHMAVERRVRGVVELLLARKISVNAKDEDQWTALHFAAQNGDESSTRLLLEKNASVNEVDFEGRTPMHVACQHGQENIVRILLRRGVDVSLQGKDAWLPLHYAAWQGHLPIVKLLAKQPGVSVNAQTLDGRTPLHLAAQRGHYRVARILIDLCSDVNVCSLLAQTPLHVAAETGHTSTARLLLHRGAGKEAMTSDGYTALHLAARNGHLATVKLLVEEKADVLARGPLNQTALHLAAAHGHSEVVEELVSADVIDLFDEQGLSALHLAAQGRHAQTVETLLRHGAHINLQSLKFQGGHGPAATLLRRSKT

Compound	IC50 (MV4-11)	proliferation inhibition in words, MV4-11 / AML (MV4-11)	IC50 (MV4-11; Homo sapiens, MV4-11)	inhibition at 0.5 µM (FGFR4)	inhibition at 0.5 µM (RIPK4)	Kd (FLT3 (ITD))	Kd (FLT3 (D835V))	Kd (FLT3 (ITD, F691L))	Kd [1]	Kd (ABL1 phosphorylated)	inhibition at 0.5 µM (CTK/MATK)	inhibition at 0.5 µM (DNA-PK)	inhibition at 0.5 µM (MKK7)	inhibition at 0.5 µM (ERK1)	inhibition at 0.5 µM (BLK)	inhibition at 0.5 µM (FMS)	inhibition at 0.5 µM (MEK1)	Kd (FLT3)	IC50 (SRC)	also measured
CN(C)CC(O)CNC(=O)c1ccc(C#Cc2c(N)ncc3ccc(Cl)cc23)cc1 (stereo not shown) [HSM1702]	71 ± 1.1 nM																			Percent inhibition of proliferation MV-4-11 (MV-4-11): 99%; Percent inhibition of proliferation HCT116 (HCT116): 33%; Percentage kinase inhibition CTK/MATK (CTK/MATK): 0%; Percentage kinase inhibition MKK7 (MKK7): 0%; Percentage kinase inhibition ERK1 (ERK1): 5%; Percentage kinase inhibition BLK (BLK): 10%; Percentage kinase inhibition FMS (FMS): 35%; Percentage kinase inhibition MEK1 (MEK1): 0%; Percent inhibition of proliferation HeLa (HeLa): 17%; Percent inhibition of proliferation MCF-7 (MCF-7): 100%
Cc1ccc(C(=O)Nc2ccc(CN3CCN(C)CC3)c(C(F)(F)F)c2)cc1C#Cc1cc(N)nc2ccccc12 [HSN285]		neither potent inhibitors of FLT3 nor active against MV4-11 or MOLM-14	721 ± 5.8 nM	0%	25%															
Cc1ccc(C(=O)Nc2ccc(CN3CCN(C)CC3)c(C(F)(F)F)c2)cc1C#Cc1c(N)ncc2ccc(Cl)cc12 [HSN286]				82%	32%	27.6 nM and 26 nM	120 nM	110 nM	29 nM	7.9 nM	0%	0%	0%	0%	100%	99%	0%	6.5 nM and 7.2 nM	4.5 nM	inhibition at 1 µM (MV-4-11; Homo sapiens, MV4-11, read-out: Percent inhibition of proliferation MV-4-11): 99%; inhibition at 1 µM (HCT116; Homo sapiens, HCT-116, read-out: Percent inhibition of proliferation HCT116): 100%; inhibition at 1 µM (HeLa; Homo sapiens, HeLa, read-out: Percent inhibition of proliferation HeLa): 100%; inhibition at 1 µM (MCF-7; Homo sapiens, MCF7, read-out: Percent inhibition of proliferation MCF-7): 100%
COc1cc2nc(N)nc(C#Cc3cc(C(=O)Nc4ccc(CN5CCN(C)CC5)c(C(F)(F)F)c4)ccc3C)c2cc1OC [HSN325]			135 ± 5.87 nM								5%	0%	6%	0%	30%	93%	2%			
Cc1ccc(C(=O)Nc2ccc(CN3CCN(C)CC3)c(C(F)(F)F)c2)cc1C#Cc1cnc(N)c2ccccc12 [HSN334, 3-((1-aminoisoquinolin-4-yl)ethynyl)-4-methyl-N-(4-((4-methylpiperazin-1-yl)methyl)-3-(trifluoromethyl)phenyl)benzamide]	1.38 ± 0.1 nM	potent proliferation inhibitors	< 1 nM			19 nM	120 nM			12 nM								5.1 nM		
Cc1ccc(C(=O)Nc2ccc(CN3CCN(C)CC3)c(C(F)(F)F)c2)cc1C#Cc1cnc(N)c2ncccc12 [HSN356, 3-((8-amino-1,7-naphthyridin-5-yl)ethynyl)-4-methyl-N-(4-((4-methylpiperazin-1-yl)methyl)-3-(trifluoromethyl)phenyl)benzamide]		potent proliferation inhibitors				6.7 nM	19 nM	28 nM	2.4 nM	1.2 nM								1.3 nM	14.9 nM	
